From patent US20200239530A1, “COMPOUNDS AND METHODS OF MODULATING PROTEIN DEGRADATION” (Vividion Therapeutics, Inc., priority 2017, published 2020)

Experiments:
[1] = biological target: T1, PML Protein PML (Homo sapiens, UniProt P29590); assay: Cysteine liganding, probe competition; type: binding
T1 construct: Cells were resuspended in cold PBS on ice and sonicated with a probe sonicator to achieve lysis; endogenous in cells
T1 sequence (P29590 1-882): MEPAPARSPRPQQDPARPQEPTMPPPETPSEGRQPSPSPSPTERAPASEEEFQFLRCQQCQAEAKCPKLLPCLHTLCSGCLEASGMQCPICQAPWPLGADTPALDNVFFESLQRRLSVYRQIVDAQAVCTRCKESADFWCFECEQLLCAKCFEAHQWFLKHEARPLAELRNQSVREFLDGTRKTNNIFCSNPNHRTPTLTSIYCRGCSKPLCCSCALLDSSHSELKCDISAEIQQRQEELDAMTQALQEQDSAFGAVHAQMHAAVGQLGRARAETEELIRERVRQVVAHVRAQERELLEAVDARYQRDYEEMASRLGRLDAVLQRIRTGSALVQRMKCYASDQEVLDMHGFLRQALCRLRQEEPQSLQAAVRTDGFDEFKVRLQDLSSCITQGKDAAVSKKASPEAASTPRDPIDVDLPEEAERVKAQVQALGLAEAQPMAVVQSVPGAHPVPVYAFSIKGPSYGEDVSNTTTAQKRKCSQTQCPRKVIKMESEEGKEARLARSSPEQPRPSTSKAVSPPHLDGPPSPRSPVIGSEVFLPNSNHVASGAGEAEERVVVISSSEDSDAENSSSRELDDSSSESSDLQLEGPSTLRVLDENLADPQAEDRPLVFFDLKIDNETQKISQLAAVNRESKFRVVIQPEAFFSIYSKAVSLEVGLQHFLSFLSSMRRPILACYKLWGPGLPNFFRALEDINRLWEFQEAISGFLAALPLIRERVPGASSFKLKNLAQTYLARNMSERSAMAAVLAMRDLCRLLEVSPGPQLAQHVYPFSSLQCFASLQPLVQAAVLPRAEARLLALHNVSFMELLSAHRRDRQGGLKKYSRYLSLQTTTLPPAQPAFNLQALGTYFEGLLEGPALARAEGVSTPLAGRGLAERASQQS
Summary of the method: (§1)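 Probe competition in native proteome: 5 mg/ml lysate, compound 1 hr 25° C, then desthiobiotin iodoacetamide (10 mM stock) 1 hr 25° C; acetone ppt, urea/DTT reduction, iodoacetamide alkylation, trypsin, streptavidin pull-down.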

[2] = biological target: T2, GAMT Guanidinoacetate N-methyltransferase (Homo sapiens, UniProt Q14353); assay: Cysteine liganding, probe competition; type: binding
T2 construct: 200 μL of lysate containing 5 mg/ml proteome was treated with 2 μL of 100× compound stock; endogenous in cells
Summary of the method: as §1

Structure (SMILES) | Liganded ([1]; PML Res# 479, uniprot P29590) | Liganded ([1]; PML Res# 484, uniprot P29590) | Liganded ([2]; GAMT Res# 91, uniprot Q14353) | KB03_500 uM_percent_inhibition ([1]; UniProt P29590, 500 uM) [%] | 100 Max ([2]; uniprot Q14353) | 100 ave ([2]; uniprot Q14353) | 500 ave ([2]; uniprot Q14353) | 500 Max ([2]; uniprot Q14353, in % (unit assumed))
COc1ccc2c(c1)CCCN2C(=O)CCl [KB02] | YES | YES | YES | – | – | – | – | –
O=C(CCl)Nc1cc(C(F)(F)F)cc(C(F)(F)F)c1 [KBO3] | – | – | – | 69 | −9.9 | −25.93 | 6.05 | 16.85
